The text below walks through data of patent publication US4103005A, “Novel-enkephalin analogs” (Hoffmann-La Roche Inc., priority 1977, dated 1978).

Where a SMILES comes first, the peptide text is derived from it. [ ]: non-standard residue; d: D form. Thz = O=C(O)[C@@H]1CSCN1

For test [1], the system named is male ICR mice. As to the kind of experiment: Analgesic assay by the tail-flick method in mice. In kind it is in vivo. Conditions: for Tail-flick inhibition after intravenous injection: 1.1 to 8.5 mg/kg injected intravenously; for Effect of naloxone pretreatment on inhibition of the tail-flick response: Naloxone HCl 3 mg/kg subcutaneously 5 min before the analog; for Tail-flick inhibition after central application: doses 0.17 to 0.85 μg (D-Met analog) and 0.011 to 0.085 μg (D-Thr analog); for Intracerebroventricular AD50 (median antinociceptive dose) / Intracerebroventricular potency ratio / Intravenous AD50 (median antinociceptive dose) / Intravenous potency ratio: mice; for Intracerebroventricular AD50 (median antinociceptive dose): intracerebroventricular (central) injection; for Intracerebroventricular AD50 (median antinociceptive dose) / Intravenous AD50 (median antinociceptive dose): tail-flick; for Intracerebroventricular potency ratio / Intravenous potency ratio: relative to morphine sulfate = 1, molar basis; for Intravenous AD50 (median antinociceptive dose): intravenous injection via tail vein; for Analgesic activity (summary statement): mouse, in vivo. The procedure:
For analgesic assay, male ICR mice weighing 25-30 g were used in all the experiments. The enkephalin analogs dissolved in saline were administered either centrally according to the method described by Haley and McCormick, Br. J. Pharmacol, 12, 12 (1957) or intravenously via the tail vein. The injection volume is 5 μl for central injection and 10 μl per gram body weight for intravenous injection. Naloxone HCl (3 mg/kg) was injected subcutaneously 5 min before the administration of enkephalin analogs. Analgesic activity was assayed by the tail-flick method of D'Amour and Smith, J. Pharmacol, Exp. Ther. 72, 74 (1941).
The percent of analgesia was calculated as [(T1 -T0)/(T2 -T0)] × 100, where a control latency (T0) was obtained from the mean of two latencies determined before drug injection; the test latencies (T1) were determined at various times after injection for each animal; the cutoff time (T2) for the tail-flick was 7 seconds. The median analgesic dose (AD50) and 95% confidence limits were calculated according to the method of Litchfield and Wilcoxon, J. Pharacol. Exp. Ther. 96, 99 (1949). The locomotor activity to the mice was measured with an electronic Fe 40 motility meter (Motron Produkter, Stockholm, Sweden). The detail of the experimental method has been described by Tseng et al., Nature (London) 263, 239 (1976).
(In general: In hot-plate and tail-flick tests a longer latency is read as antinociception.)

The conditions of test [2]: cited from earlier work; for Analgesic activity reported in the literature: in vivo.
Test [3] deals with male ICR mice. The conditions noted are these: cited from earlier work.

Turning to `CSCC[C@@H](NC(=O)[C@@H](N)Cc1ccc(O)cc1)C(=O)NCC(=O)N[C@@H](Cc1ccccc1)C(=O)N1CSC[C@H]1C(N)=O` [D-Met^2,Thz^5 -Enkephalinamide, H-Tyr-D-Met-Gly-Phe-Thz-NH2] (H-Y[dM]GF[Thz]-NH2), in test [1], the “Tail-flick inhibition after intravenous injection” value is listed as “active in inhibiting the tail-flick response”, the “Effect of naloxone pretreatment on inhibition of the tail-flick response” value was “blocked by the pretreatment of naloxone”, the “Intracerebroventricular AD50 (median antinociceptive dose)” value (from here on “Intracerebroventricular AD50”) was determined as 0.145 nmole/mouse and the Intracerebroventricular potency ratio is on record as 7.7. Besides, in test [1], the “Intravenous AD50 (median antinociceptive dose)” value (“Intravenous AD50” below) is 2.71 µmol/kg, the Intravenous potency ratio amounted to 4.2 and the “Analgesic activity (summary statement)” value is recorded as “potent analgesic agents”. Besides, in test [1] (applied centrally), the “AD50, times higher than [D-Thr^2,Thz^5 ]-enkephalinamide” value worked out at 3.5 times; the “Tail-flick inhibition after central application” value was “dose-related increase in intensity and duration of the tail-flick inhibition”.
For `C[C@H](O)[C@@H](NC(=O)[C@@H](N)Cc1ccc(O)cc1)C(=O)NCC(=O)N[C@@H](Cc1ccccc1)C(=O)N1CSC[C@H]1C(N)=O` [D-Thr^2,Thz^5 -Enkephalinamide, H-Tyr-D-Thr-Gly-Phe-Thz-NH2] (H-Y[dT]GF[Thz]-NH2), in test [1], the “Tail-flick inhibition after intravenous injection” value is listed as “active in inhibiting the tail-flick response”, the “Effect of naloxone pretreatment on inhibition of the tail-flick response” value was “blocked by the pretreatment of naloxone”, the “Intracerebroventricular AD50” value was 0.04 nmole/mouse and the Intracerebroventricular potency ratio is 27.1. In test [1], the “Intravenous AD50” value stood at 2.40 µmol/kg, the Intravenous potency ratio turned out to be 4.8 and the “Analgesic activity (summary statement)” value is “potent analgesic agents”. Also, in test [1] (applied centrally), the “Potency, times more potent than [D-Met^2, Thz^5 ]-enkephalinamide” value is recorded as 3.5 times; the “Tail-flick inhibition after central application” value is “dose-related increase in intensity and duration of the tail-flick inhibition”. Besides, in test [1] (intravenous injection), the Duration of analgesia result was “longer than that produced by [D-Met^2,Thz^5 ]-enkephalinamide”.
As for `CN1CC[C@]23c4c5ccc(O)c4O[C@H]2[C@@H](O)C=C[C@H]3[C@H]1C5.O=S(=O)(O)O` [Morphine sulfate, reference compound], in test [1], the “Intracerebroventricular AD50” value was found to be 1.11 nmole/mouse and the “Intravenous AD50” value was 11.4 µmol/kg.
Turning to “D-Ala^2, MePhe^4, Met-O^5 -ol enkephalin”, the “Analgesic activity reported in the literature” value in test [2] is “most potent analgesic of the group”. For the same compound, the “Oral activity reported in the literature” value in test [2] (oral) is “orally active”.
With “D-Ala^2,D-Leu^5 -Enkephalin [reference compound]”, in test [1], the “Intracerebroventricular AD50” value worked out at 0.035 nmole/mouse and the Intracerebroventricular potency ratio is 31.7.
In the case of Met-enkephalin [reference compound], in test [1], the “Intracerebroventricular AD50” value is listed as above 174 nmole/mouse, the Intracerebroventricular potency ratio was below 0.006, the “Intravenous AD50” value was above 60 µmol/kg and the Intravenous potency ratio was below 0.19.
[D-Met^2, Pro^5 ]-enkephalinamide: in test [2], the “Analgesic activity reported in the literature” value is “potent analgesic agent”.
For the compound “βc -Endorphin (YGGFMTSEKSQTPLVTLFKNAIIKNAHKKGQ; Beta-endorphin; UniProt P01203 1-31, looked up) [reference compound]”, in test [1], the “Intracerebroventricular AD50” value was 0.032 nmole/mouse, the Intracerebroventricular potency ratio was 34.7, the “Intravenous AD50” value was determined as 2.7 µmol/kg and the Intravenous potency ratio was found to be 4.2. The “Locomotor activity (previously shown)” value in test [3] is listed as “stimulate locomotor activity weakly or not at all”.
